Experiments:
cytochrome P450 enzymes = test: Inhibition of representative cytochrome P450 enzymes; assay type: in vitro ADME; conditions: 10 uM
T. cruzi (Brazil strain) [1] = test: In vivo killing time assay: mouse footpads, Luciferase-expressing T. cruzi; design: species or system Trypanosoma cruzi; conditions: mice, single oral dose 25 mg/kg (FIG. 1C)
Protocol: Cure assays: Male or female C57BL/6 mice were intraperitoneally infected with 10^4 trypomastigotes of the Brazil strain. Mouse infection was confirmed at 25-30 dpi by detection of CD8^+ T cells specific against the T. cruzi TSKb20 peptide in blood (Martin, et al., PLoS pathogens 2, e77 (2006)). Compounds resuspended in 1% carboxymethyl cellulose and 0.1% Tween 80, were administered daily by gavage at the specified concentrations. In order to optimally detect persistent infection, immune responses in the mice were suppressed by intraperitoneal injection of four doses of cyclophosphamide every 2-3 days (200 mg/kg/day), beginning one week after the end of therapeutic treatment. At the end of the immunosuppression regimen, peripheral blood was checked under light microscope for parasites and cultured in LDNT media (Bustamante, et al., The Journal of infectious diseases 209, 150-162 (2014)). […] In vivo killing time assays: C57BL/6 mice were infected with 2.5×10^5 Luciferase-expressing T. cruzi (Brazil strain) in the foot pads, and two days later one oral dose of AN14353 (25 mg/kg) was administered. The bioluminescent signal in the feet after i.p. injection of D-luciferin (PerkinElmer; 250 mg/kg) was measured in a Lumina II IVIS imager (PerkinElmer). […]

[2] = tested on: T. cruzi extracellular amastigotes; test: Extracellular amastigote assay (ATPlite ATP production, 48 hours); assay type: cell-based, Trypanosoma cruzi; conditions: in words
Protocol: (§1) The in vitro anti-T. cruzi amastiogote activity assay was performed and optimized based on the protocol described previously (Canavaci, et al., PLoS neglected tropical diseases 4, e740 (2010)). The change in tdTomato fluorescence intensity was determined as a measurement of growth over 72 hours of culture. For assaying drug effects on extracellular amastigotes, trypomastigotes were collected from infected Vero cell cultures and converted in acidic media as previously described (Tomlinson, et al., Parasitology 110 (Pt 5), 547-554 (1995)). Amastigotes (50,000/well) were incubated with 2-fold serial dilutions of compounds for 48 hours. The ATP production was used as an indication of growth in this case, and was measured by ATPlite Luminescence ATP Detection Assay System (PerkinElmer). Both fluorescence and luminescence were read using a BioTek Synergy Hybrid Multi-Mode reader equipped with the software Gene5 v 2.0 (BioTek). The dose-response curve was generated by linear regression analysis with GraphPad Prism v9.4.0 (GraphPad Software). IC50 was determined as the drug concentration that was required to inhibit 50% of growth compared to that of parasites with no drug exposure.

Standard Ames study = assay type: cell-based
[3] = tested on: T. cruzi serine carboxypeptidase (CBP); test: Sensitivity of serine carboxypeptidase (CBP) knockout T. cruzi amastigotes; assay type: cell-based, Trypanosoma cruzi
Protocol: as §1, with “The dose-response curve was generated by linear regression analysis with GraphPad Prism v9.4.0 (GraphPad Software). IC50 was determined as the drug concentration that was required to inhibit 50% of growth compared to that of parasites with no drug exposure.” left out
The CBPs knockout was produced using ribonucleoprotein (RNP) complexes as previously described (Soares Medeiros, et al., mBio 8 (2017)). Briefly, Brazil tdTomato strain epimastigotes were electroporated with RNP complexes containing SaCas9 and an sgRNA targeting CBP gene TcBrA4_0048170, plus a repair template containing stop codons in all three reading frames and the M13 sequence for use as a PCR anchor. […]

[4] = tested on: mammalian enzymes, receptors and ion channels; test: Safety pharmacology: affinity for a broad array of mammalian enzymes, receptors and ion channels; assay type: binding
[5] = High dose 7-day toxicology studies in rats; assay type: in vivo; conditions: for dose proportionality of exposure: high dose 7-day toxicology studies, oral; for NOAEL dose: allometric scaling from rats
T. cruzi (Brazil strain) [6] = test: Mouse cure assays (daily oral treatment, cyclophosphamide immunosuppression, hemoculture, skeletal muscle qPCR); assay type: in vivo, Trypanosoma cruzi
Protocol: Cure assays: Male or female C57BL/6 mice were intraperitoneally infected with 10^4 trypomastigotes of the Brazil strain. Mouse infection was confirmed at 25-30 dpi by detection of CD8^+ T cells specific against the T. cruzi TSKb20 peptide in blood (Martin, et al., PLoS pathogens 2, e77 (2006)). Compounds resuspended in 1% carboxymethyl cellulose and 0.1% Tween 80, were administered daily by gavage at the specified concentrations. In order to optimally detect persistent infection, immune responses in the mice were suppressed by intraperitoneal injection of four doses of cyclophosphamide every 2-3 days (200 mg/kg/day), beginning one week after the end of therapeutic treatment. At the end of the immunosuppression regimen, peripheral blood was checked under light microscope for parasites and cultured in LDNT media (Bustamante, et al., The Journal of infectious diseases 209, 150-162 (2014)). […] In vivo killing time assays: C57BL/6 mice were infected with 2.5×10^5 Luciferase-expressing T. cruzi (Brazil strain) in the foot pads, and two days later one oral dose of AN14353 (25 mg/kg) was administered. The bioluminescent signal in the feet after i.p. injection of D-luciferin (PerkinElmer; 250 mg/kg) was measured in a Lumina II IVIS imager (PerkinElmer). Low dose short treatment: Hairless mice (SKH-1) were infected intraperitoneally with 5×10^4 Luciferase expressing T. cruzi (Colombiana strain) and orally treated from 12 to 22 dpi with 1, 2.5 or 5 mg/kg of AN16109 or AN15368. Bioluminiscence signal of the whole body was measure after D-luciferin injection in a Lumina II IVIS in vivo imager equipped with the Living Imaging 4.0 software (PerkinElmer).

CPSF3 = test: Resistance of CPSF3 overexpression line and CPSF3 mutant (intracellular amastigotes); assay type: cell-based, Trypanosoma cruzi
Protocol: as §1, with “exposure. […]” for “exposure.”

With `Cc1c(C(=O)N[C@H](C(=O)OCc2ccc(F)c(F)c2)C(C)C)ccc2c1B(O)OC2` [AN14353] as the compound, how does the “inhibition of representative cytochrome P450 enzymes” value (cytochrome P450 enzymes) read?
The value was “did not demonstrate significant inhibition”.

And the “in vivo trypanocidal activity (bioluminescence of feet over 72 hrs)” value (T. cruzi (Brazil strain) [1])?
Its value is “rapid in vivo trypanocidal activity”.

And the “sensitivity of extracellular amastigotes” value [2]?
Its value is “high sensitivity”.

What about the “genotoxicity, Ames” value (Standard Ames study) of the same compound?
The value was “non-genotoxic”.

And the “decrease of in vitro sensitivity of T. cruzi amastigotes after disruption of serine carboxypeptidases” value ([3]; CBP KO vs wild type (FIG. 2C))?
The value was “up to 100 fold”.

What about the “affinity for a broad array of mammalian enzymes, receptors and ion channels” value [4] of the same compound?
Its value is “little to no affinity”.

What about the “dose proportionality of exposure” value [5] of the same compound?
Its value is “non-dose proportional exposure”.

What about the “resolution of infections in immunodeficient mice” value (T. cruzi (Brazil strain) [6]; IFN-gamma deficient mice, 25 mg/kg, 40 days (FIG. 1E)) of the same compound?
The value was “consistently resolve”.

And the “resolution of established T. cruzi infections” value (T. cruzi (Brazil strain) [6]; wild-type mice, 25 mg/kg, 40 day treatment (FIG. 1D))?
The value was “consistently resolve established T. cruzi infections”.

Which results are given for `Cc1c(C(=O)N[C@H](C(=O)OCC2CCOCC2)C(C)C)ccc2c1B(O)OC2` [AN15368]?
inhibition of representative cytochrome P450 enzymes (cytochrome P450 enzymes): did not demonstrate significant inhibition; genotoxicity, Ames (Standard Ames study): non-genotoxic; increased resistance after disruption of CBPs ([3]; intracellular amastigotes, TcCBP KO vs WT (FIG. 5E)): 1000 ×; increase in resistance on overexpression of CPSF3 (CPSF3; intracellular amastigotes): 3-5 fold; effect of CPSF3 Asn232 to His mutation (CPSF3; intracellular amastigotes (FIG. 5D)): conferred resistance; affinity for a broad array of mammalian enzymes, receptors and ion channels [4]: little to no affinity; dose proportionality of exposure [5]: good dose proportional exposure; NOAEL dose ([5]; humans): 19.4 mg/kg; NOAEL dose ([5]; monkeys): 60.5 mg/kg; NOAEL ([5]; rats): 120 mg/kg; drug accumulation between the first and seventh days ([5]; rats): no evidence of drug accumulation; total plasma exposure (AUC0-24 h) ([5]; rats, 120 mg/kg/day): approximately 30,000 ng*hr/mL; effects on hematology and clinical chemistry ([5]; rats, 120 mg/kg/day or lower): none; effects on hematology and clinical chemistry ([5]; rats, 150 mg/kg): modest effects; cure of T. cruzi infection in mice (T. cruzi (Brazil strain) [6]; in words (FIGS. 3A-3E)): cures T. cruzi infection in mice; minimal efficacious dose (T. cruzi (Brazil strain) [6]; mice (FIG. 3E)): 2.5 mg/kg
